In BindingDB's records for doi:10.7270/Q2Z899TZ (Columbia University Molecular Screening Center, 2007):

Each molecule was assayed against T1, Tyrosine-protein phosphatase non-receptor type 22 (Homo sapiens, UniProt Q9Y2R2) (assay: inhibition of human PTPN22 tyrosine phosphatase – biochemical, DiFMUP fluorescence, recombinant catalytic domain, 10 µM, primary screen (AID 606)).
T1 sequence (Q9Y2R2 whole entry): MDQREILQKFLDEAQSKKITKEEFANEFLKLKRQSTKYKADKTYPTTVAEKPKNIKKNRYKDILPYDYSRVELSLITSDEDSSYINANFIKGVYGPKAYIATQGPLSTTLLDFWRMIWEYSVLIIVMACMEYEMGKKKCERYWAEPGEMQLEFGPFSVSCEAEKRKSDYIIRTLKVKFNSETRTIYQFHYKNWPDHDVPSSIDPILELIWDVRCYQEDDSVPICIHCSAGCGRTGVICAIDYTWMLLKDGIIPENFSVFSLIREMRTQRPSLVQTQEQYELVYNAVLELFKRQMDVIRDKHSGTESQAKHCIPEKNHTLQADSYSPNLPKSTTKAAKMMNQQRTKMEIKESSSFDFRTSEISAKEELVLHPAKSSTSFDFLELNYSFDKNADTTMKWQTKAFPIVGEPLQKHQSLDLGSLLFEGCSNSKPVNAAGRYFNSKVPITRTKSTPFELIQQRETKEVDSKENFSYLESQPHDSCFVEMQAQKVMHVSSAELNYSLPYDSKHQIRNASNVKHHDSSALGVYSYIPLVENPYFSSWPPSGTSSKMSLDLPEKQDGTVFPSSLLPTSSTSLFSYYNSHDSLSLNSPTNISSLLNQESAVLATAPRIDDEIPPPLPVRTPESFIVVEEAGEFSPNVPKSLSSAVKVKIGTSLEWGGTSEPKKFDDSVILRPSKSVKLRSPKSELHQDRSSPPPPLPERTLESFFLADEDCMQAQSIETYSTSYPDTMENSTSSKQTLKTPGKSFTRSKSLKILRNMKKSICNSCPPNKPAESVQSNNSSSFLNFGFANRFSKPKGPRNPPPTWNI
For `Cc1ccc2c(c1C)NC(C(=O)O)C1CC=CC21` (stereo unspecified), the IC50 was 940 nM. `CCn1nc(-c2ccccc2)nc2c(=O)n(C)c(=O)nc1-2` [1-Ethyl-6-methyl-3-phenyl-1H-pyrimido[5,4-e][1,2,4]triazine-5,7-dione] showed an IC50 of 1660 nM. In the case of `CC(C)Cn1c(N)c(C(=O)COC(=O)c2cc(-c3ccco3)nc3ccccc23)c(=O)n(C)c1=O` [2-(2-furanyl)-4-quinolinecarboxylic acid [2-[4-amino-1-methyl-3-(2-methylpropyl)-2,6-dioxo-5-pyrimidinyl]-2-oxoethyl] ester], the IC50 is reported as 5810 nM. In the case of `CCCCC[C@H](O)C=C[C@H]1C=CC(=O)[C@@H]1C/C=C\CCCC(=O)O` [(Z)-7-[(1R,5S)-2-oxidanylidene-5-[(E,3S)-3-oxidanyloct-1-enyl]cyclopent-3-en-1-yl]hept-5-enoic acid], the IC50 is reported as 6690 nM. With `O=C1C=Cc2ccccc2/C1=C/NC12CN3CCN(CN(C3)C1)C2` [MLS000071484] the IC50 was > 40000 nM. Molecule `COc1ccc(Cn2c(C)nc3c(c2=O)c2nc4ccccc4nc2n3Cc2ccco2)cc1` [MLS000079944] has an IC50 of 1780 nM.
